A short description of the data set: Water retention property test 2 (hydrates). The format is physicochemical. Particulars: hydrate (anhydrides: aqueous solution at mono- to trihydrate concentration); for Pre-test moisture rate: before the test; for Post-test moisture rate / Rate of reduction in moisture: unsealed, 24 hours at 40° C. and 25% RH. How it is done:
(2) Water retention property test 2 The water retention property of the hydrate of each compound was evaluated. Hydrates were used in the cases of the compounds C1 to C38, C40 to C49 and C56 to C59; however, since the compounds C39 and C62 to C64 were anhydrides, there were used aqueous solutions prepared by adding water so that a concentration would be that of monohydrate to trihydrate. The moisture rate of the sample(s) was confirmed using a Karl Fischer moisture meter (pre-test moisture rate: A). Next, 1.0 g of each of these samples was added to a screw tube, and this screw tube, while remaining unsealed, was then left to stand still for 24 hours in a thermo-hygrostat set to 40° C. and 25% RH. A moisture rate after 24 hours was again measured (post-test moisture rate: B), followed by calculating a rate of reduction in moisture in a similar manner as above so as to evaluate the water retention property. Here, a comparative evaluation was performed on each hydrate of the compounds C1 to C38, C40 to C49 and C56 to C59 together with an aqueous solution(s) of the compound C39 having a concentration(s) corresponding to the numbers of these hydration waters.
(monohydrates in compounds C1 to C38, C40 to C49 and C56 to C59 of working examples C62 to C99, C103 to C116 with compound C39 of working example C100, compound C62 of comparative example C4, compound C63 of comparative example C7 and compound C64 of comparative example C10)
(dihydrates in compounds C1 to C38, C40 to C49 and C56 to C59 of working examples C62 to C99, C103 to C116 with compound C39 of working example C101, compound C62 of comparative example C5, compound C63 of comparative example C8 and compound C64 of comparative example C11)
(trihydrates in compounds C1 to C38, C40 to C49 and C56 to C59 of working examples C62 to C99, C103 to C116 with compound C39 of working example C102, compound C62 of comparative example C6, compound C63 of comparative example C9 and compound C64 of comparative example C12)

With `CCCC[N+](CCCC)(CCCC)CCCC.[Br-]` [Comparative example C4], the Pre-test moisture rate turned out to be 2.5%, the Post-test moisture rate is 4.9% and the “Rate of reduction in moisture” value was determined as 8.1%.
As to `CCCC[N+](CCCC)(CCCC)CCCC.[Br-]` [Comparative example C5], the Pre-test moisture rate was found to be 10.1%, the Post-test moisture rate was found to be 8.6% and the “Rate of reduction in moisture” value is reported as 15.1%.
The like results for `CCCC[N+](CCCC)(CCCC)CCCC.[Br-]` [Comparative example C6] were, in that order, 14.4%, 10.8% and 25.1%.
The like results for `CCCCn1cc[n+](C)c1.F[B-](F)(F)F` [Comparative example C7] were, in that order, 7.4%, 3.9% and 47.3%.
As to `CCCCn1cc[n+](C)c1.F[B-](F)(F)F` [Comparative example C8], the Pre-test moisture rate worked out at 13.8%, the Post-test moisture rate came to 7.1% and the “Rate of reduction in moisture” value is on record as 48.6%.
`CCCCn1cc[n+](C)c1.F[B-](F)(F)F` [Comparative example C9]: the Pre-test moisture rate is reported as 19.3%, the Post-test moisture rate worked out at 11.2% and the “Rate of reduction in moisture” value came out at 42.1%.
The like results for `OCC(O)CO` [Comparative example C10] were, in that order, 16.4%, 15.3% and 6.7%.
For `OCC(O)CO` [Comparative example C11], the Pre-test moisture rate came out at 28.1%, the Post-test moisture rate came to 24.4% and the “Rate of reduction in moisture” value was 13.3%.
Regarding `OCC(O)CO` [Comparative example C12], the Pre-test moisture rate came out at 37.0%, the Post-test moisture rate worked out at 31.9% and the “Rate of reduction in moisture” value worked out at 13.7%.
Consider `O=C1O[C@H]([C@@H](O)CO)C(O)=C1O.OCCNCCO` [Comparative example C104], for which the Pre-test moisture rate was found to be 11.4%, the Post-test moisture rate is 11.0% and the “Rate of reduction in moisture” value turned out to be 3.5%.
With `O=C1OC(C(O)CO)C(O)=C1O.OCCN(CCO)CCO` (stereo not drawn) [Comparative example C105], the Pre-test moisture rate is reported as 10.0%, the Post-test moisture rate was 9.8% and the “Rate of reduction in moisture” value is 2.0%.
Consider `NC(CO)CO.O=C1O[C@H]([C@@H](O)CO)C(O)=C1O` [Comparative example C106], for which the Pre-test moisture rate came out at 11.9%, the Post-test moisture rate stood at 11.7% and the “Rate of reduction in moisture” value turned out to be 1.7%.
As for `CC(O)C(=O)O.NCCO` (stereo not drawn) [Working example C62], the Pre-test moisture rate was 10.7%, the Post-test moisture rate worked out at 10.5% and the “Rate of reduction in moisture” value was 1.9%.
With `CC(O)C(=O)O.OCCNCCO` [Working example C63], the Pre-test moisture rate is reported as 15.6%, the Post-test moisture rate is recorded as 14.9% and the “Rate of reduction in moisture” value was determined as 4.6%.
As to `O=C(O)CO.OCCNCCO` [Working example C64], the Pre-test moisture rate came to 16.6%, the Post-test moisture rate is recorded as 16.1% and the “Rate of reduction in moisture” value came to 3.0%.
On to `O=C(O)CCC(=O)O.OCCNCCO` [Working example C65], for which the Pre-test moisture rate is 13.9%, the Post-test moisture rate turned out to be 13.1% and the “Rate of reduction in moisture” value came out at 6.0%.
The like results for `CC(O)C(=O)O.OCCN(CCO)CCO` [Working example C66] were, in that order, 18.4%, 17.7% and 3.8%.
On to `CC(=O)O.NC(CO)CO` [Working example C67], for which the Pre-test moisture rate amounted to 19.3%, the Post-test moisture rate came to 18.8% and the “Rate of reduction in moisture” value was 2.8%.
`NC(CO)CO.O=C(O)CO` [Working example C68]: the Pre-test moisture rate was 17.7%, the Post-test moisture rate turned out to be 17.3% and the “Rate of reduction in moisture” value turned out to be 2.0%.
On to `CC(O)C(=O)O.NC(CO)CO` (stereo not drawn) [Working example C69], for which the Pre-test moisture rate is reported as 16.6%, the Post-test moisture rate is given as 16.1% and the “Rate of reduction in moisture” value worked out at 2.8%.
As to `NC(CO)CO.O=C(O)CCC(=O)O` [Working example C70], the Pre-test moisture rate is on record as 14.7%, the Post-test moisture rate was found to be 13.9% and the “Rate of reduction in moisture” value is listed as 5.4%.
On the same counts, the results for `NC(CO)CO.O=C(O)CC(O)(CC(=O)O)C(=O)O` [Working example C71] are 11.3%, 10.7% and 5.4%.
In the case of `CS(=O)(=O)O.NC(CO)CO` [Working example C72], the Pre-test moisture rate is listed as 16.1%, the Post-test moisture rate was 16.0% and the “Rate of reduction in moisture” value came out at 0.4%.
For the compound `F[B-](F)(F)F.[NH3+]C(CO)CO` [Working example C73], the Pre-test moisture rate worked out at 16.8%, the Post-test moisture rate came to 15.9% and the “Rate of reduction in moisture” value came out at 5.5%.
Consider `Br.NC(CO)CO` [Working example C74], for which the Pre-test moisture rate was determined as 17.3%, the Post-test moisture rate turned out to be 15.7% and the “Rate of reduction in moisture” value amounted to 9.5%.
On to `Cl.NC(CO)CO` [Working example C75], for which the Pre-test moisture rate was determined as 22.0%, the Post-test moisture rate was 19.7% and the “Rate of reduction in moisture” value was determined as 10.5%.
`CC(O)C(=O)O.CCC(N)(CO)CO` [Working example C76]: the Pre-test moisture rate amounted to 14.7%, the Post-test moisture rate is recorded as 14.3% and the “Rate of reduction in moisture” value is on record as 3.0%.
`CCC(N)(CO)CO.O=C(O)CC(O)(CC(=O)O)C(=O)O` [Working example C77]: the Pre-test moisture rate is recorded as 10.4%, the Post-test moisture rate was found to be 9.9% and the “Rate of reduction in moisture” value came to 4.9%.
On the same counts, the results for `CCC(N)(CO)CO.CS(=O)(=O)O` [Working example C78] are 14.3%, 14.2% and 0.9%.
Regarding `Br.CCC(N)(CO)CO` [Working example C79], the Pre-test moisture rate turned out to be 15.3%, the Post-test moisture rate turned out to be 13.9% and the “Rate of reduction in moisture” value turned out to be 8.9%.
On the same counts, the results for `CCC(N)(CO)CO.Cl` [Working example C80] are 18.8%, 17.0% and 9.8%.
On the same counts, the results for `CC(O)C(=O)O.NC(CO)(CO)CO` [Working example C81] are 13.2%, 12.9% and 2.6%.
`NC(CO)(CO)CO.O=C(O)CC(O)(CC(=O)O)C(=O)O` [Working example C82]: the Pre-test moisture rate is 10.3%, the Post-test moisture rate turned out to be 9.8% and the “Rate of reduction in moisture” value came to 5.0%.
Take `CS(=O)(=O)O.NC(CO)(CO)CO` [Working example C83]: the Pre-test moisture rate came out at 14.2%, the Post-test moisture rate was found to be 14.0% and the “Rate of reduction in moisture” value is 1.1%.
Consider `CC(O)C(=O)O.NCC(O)C(O)C(O)C(O)CO` (stereo not drawn) [Working example C84], for which the Pre-test moisture rate came out at 11.7%, the Post-test moisture rate stood at 11.4% and the “Rate of reduction in moisture” value stood at 2.8%.
For `CC(O)C(=O)O.N` (stereo not drawn) [Working example C85], the Pre-test moisture rate is reported as 14.4%, the Post-test moisture rate was 13.7% and the “Rate of reduction in moisture” value is 4.7%.
`CC(O)C(=O)[O-].CCC(CO)(CO)[N+](CC(O)CO)(CC(O)CO)CC(O)CO` (stereo not drawn) [Working example C86]: the Pre-test moisture rate worked out at 7.9%, the Post-test moisture rate was 7.5% and the “Rate of reduction in moisture” value was 4.8%.
With `CC(O)C(=O)[O-].OCC[N+](CCO)(CCO)CCO` [Working example C87], the Pre-test moisture rate was 11.2%, the Post-test moisture rate is given as 10.7% and the “Rate of reduction in moisture” value amounted to 4.8%.
Take `CC(=O)[O-].C[N+](C)(C)CCO` [Working example C88]: the Pre-test moisture rate amounted to 9.9%, the Post-test moisture rate came to 9.5% and the “Rate of reduction in moisture” value turned out to be 4.0%.

Values taken from patent publication US20250090437A1, “COSMETIC COMPOUNDING AGENT, COSMETIC AND PRODUCTION METHOD THEREOF” (MIYOSHI OIL & FAT CO., LTD., priority 2019, published 2025).
